What all share (type): in vivo
Holding throughout (details): post-emergence spray at 4-5 leaf stage, 250 g/ha active ingredient with 450 kg/ha water, rated after 3 weeks in greenhouse

One data set has as its system Indian mallow. The data set can be described thus: weed control effect in post-emergence stage (Table 1). Details: key: Level 10: completely dead; Level 9: above 95% growth control rate; Level 8: above 90% growth control rate; Level 7: above 80% growth control rate; Level 6: above 70% growth control rate; Level 5: above 60% growth control rate; Level 4: above 50% growth control rate; Level 3: above 20% growth control rate; Level 2: 5%-20% growth control rate; Level 1: below 5% growth control rate. An outline of the steps:
(§1)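 Weeds and crops grown in soil-filled pots in a greenhouse were sprayed at the 4-5 leaf stage (2-3 weeks after sowing). Compounds were applied in acetone with tween 80, diluted in water. After 3 weeks' culture, growth control was scored as fresh weight control rate.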

The test system of the next data set is bidens bipinnata. The data set is described as above. More on the design: key: Level 10: completely dead; Level 9: above 95% growth control rate; Level 8: above 90% growth control rate; Level 7: above 80% growth control rate; Level 6: above 70% growth control rate; Level 5: above 60% growth control rate; Level 4: above 50% growth control rate; Level 3: above 20% growth control rate; Level 2: 5%-20% growth control rate; Level 1: below 5% growth control rate. In short, it runs like this:
as §1

A further data set deals with crab grass. The data set is described as above. Details: key: Level 10: completely dead; Level 9: above 95% growth control rate; Level 8: above 90% growth control rate; Level 7: above 80% growth control rate; Level 6: above 70% growth control rate; Level 5: above 60% growth control rate; Level 4: above 50% growth control rate; Level 3: above 20% growth control rate; Level 2: 5%-20% growth control rate; Level 1: below 5% growth control rate. In short, it runs like this: as §1

Another data set has as its system echinochloa. Described as above. Details: key: Level 10: completely dead; Level 9: above 95% growth control rate; Level 8: above 90% growth control rate; Level 7: above 80% growth control rate; Level 6: above 70% growth control rate; Level 5: above 60% growth control rate; Level 4: above 50% growth control rate; Level 3: above 20% growth control rate; Level 2: 5%-20% growth control rate; Level 1: below 5% growth control rate. In short, it runs like this: as §1

In another data set the test system is foxtail. Described as above. Details: key: Level 10: completely dead; Level 9: above 95% growth control rate; Level 8: above 90% growth control rate; Level 7: above 80% growth control rate; Level 6: above 70% growth control rate; Level 5: above 60% growth control rate; Level 4: above 50% growth control rate; Level 3: above 20% growth control rate; Level 2: 5%-20% growth control rate; Level 1: below 5% growth control rate. In short, it runs like this:
as §1

A further data set relates to rorippa indica. The data set is described as above. Details: key: Level 10: completely dead; Level 9: above 95% growth control rate; Level 8: above 90% growth control rate; Level 7: above 80% growth control rate; Level 6: above 70% growth control rate; Level 5: above 60% growth control rate; Level 4: above 50% growth control rate; Level 3: above 20% growth control rate; Level 2: 5%-20% growth control rate; Level 1: below 5% growth control rate. In short, it runs like this: as §1

For another data set, the system named is corn. The data set can be described thus: post-emergence stage experiment, crop (Table 1). An outline of the steps:
as §1

A further data set relates to wheat. Kind of data set: post-emergence stage experiment, crop (Table 1). In short, it runs like this:
as §1

The next data set relates to rice. The data set can be described thus: post-emergence stage experiment, crop (Table 1). More on the design: key: Level 10: completely dead; Level 9: above 95% growth control rate; Level 8: above 90% growth control rate; Level 7: above 80% growth control rate; Level 6: above 70% growth control rate; Level 5: above 60% growth control rate; Level 4: above 50% growth control rate; Level 3: above 20% growth control rate; Level 2: 5%-20% growth control rate; Level 1: below 5% growth control rate. In short, it runs like this: as §1

For `CCOc1c(C(=O)Oc2c(C(=O)c3ccc(C(F)(F)F)c(N4CCCCC4=O)c3Cl)cnn2C)cnn1C` [Compound 032], in the data set on Indian mallow, the “weed control effect, Indian mallow (level)” value is reported as 10. Moreover, the “weed control effect, Bidens bipinnata (level)” value with bidens bipinnata is recorded as 6 (Level 6: above 70% growth control rate). In addition, the “weed control effect, Crab grass (level)” value with crab grass is 10. Moreover, the “weed control effect, Echinochloa (level)” value in the data set on echinochloa is on record as 9 (Level 9: above 95% growth control rate). Besides, the “weed control effect, Green foxtail (level)” value with foxtail was 10. Further, the “weed control effect, Rorippa indica (level)” value with rorippa indica turned out to be 10. Further, the “effect on crop, Corn (level)” value in the data set on corn is 4 (Level 4: above 50% growth control rate). Further, the “effect on crop, Wheat (level)” value in the data set with wheat is 1 (Level 1: below 5% growth control rate). Moreover, in the data set on rice, the “effect on crop, Rice (level)” value was 8 (Level 8: above 90% growth control rate).

Regarding `CCn1ncc(C(=O)c2ccc(C(F)(F)F)c(N3CCCCC3=O)c2Cl)c1O` [Compound 106], in the data set with Indian mallow, the “weed control effect, Indian mallow (level)” value was 7 (Level 7: above 80% growth control rate). Further, the “weed control effect, Bidens bipinnata (level)” value in the data set with bidens bipinnata is reported as 6 (Level 6: above 70% growth control rate). Moreover, the “weed control effect, Crab grass (level)” value with crab grass is 6 (Level 6: above 70% growth control rate). For the same molecule, the “weed control effect, Echinochloa (level)” value in the data set on echinochloa turned out to be 10. Also, the “weed control effect, Green foxtail (level)” value with foxtail is recorded as 3 (Level 3: above 20% growth control rate). In addition, the “weed control effect, Rorippa indica (level)” value with rorippa indica was 5 (Level 5: above 60% growth control rate). Further, the “effect on crop, Corn (level)” value in the data set with corn was 3 (Level 3: above 20% growth control rate). Further, the “effect on crop, Wheat (level)” value in the data set with wheat is listed as 3 (Level 3: above 20% growth control rate). The “effect on crop, Rice (level)” value with rice is listed as 9 (Level 9: above 95% growth control rate).

For the molecule `CCc1nn(C)c(OC(=O)c2cn(C)nc2C)c1C(=O)c1ccc(C(F)(F)F)c(N2CCCC2=O)c1Cl` [Compound 101], in the data set on Indian mallow, the “weed control effect, Indian mallow (level)” value is 10. Moreover, the “weed control effect, Bidens bipinnata (level)” value with bidens bipinnata is given as 9 (Level 9: above 95% growth control rate). Further, in the data set on crab grass, the “weed control effect, Crab grass (level)” value was 4 (Level 4: above 50% growth control rate). The “weed control effect, Echinochloa (level)” value with echinochloa is on record as 10. In addition, the “weed control effect, Green foxtail (level)” value in the data set on foxtail stood at 10. Further, the “weed control effect, Rorippa indica (level)” value with rorippa indica was found to be 10. In the data set on corn, the “effect on crop, Corn (level)” value is 2 (Level 2: 5%-20% growth control rate). The “effect on crop, Wheat (level)” value with wheat is 3 (Level 3: above 20% growth control rate). In the data set with rice, the “effect on crop, Rice (level)” value is given as 10.

For `Cn1ncc(C(=O)c2ccc(C(F)(F)F)c(N3CCCCCC3=O)c2Cl)c1O` [Compound 050], in the data set on Indian mallow, the “weed control effect, Indian mallow (level)” value is 9 (Level 9: above 95% growth control rate). Further, in the data set on bidens bipinnata, the “weed control effect, Bidens bipinnata (level)” value is 3 (Level 3: above 20% growth control rate). Further, the “weed control effect, Crab grass (level)” value in the data set with crab grass is 3 (Level 3: above 20% growth control rate). In the data set on echinochloa, the “weed control effect, Echinochloa (level)” value is on record as 2 (Level 2: 5%-20% growth control rate). The “weed control effect, Green foxtail (level)” value with foxtail is 7 (Level 7: above 80% growth control rate). Moreover, in the data set with rorippa indica, the “weed control effect, Rorippa indica (level)” value was 5 (Level 5: above 60% growth control rate). In the data set on corn, the “effect on crop, Corn (level)” value was 3 (Level 3: above 20% growth control rate). Besides, the “effect on crop, Wheat (level)” value in the data set with wheat was found to be 0. Moreover, the “effect on crop, Rice (level)” value in the data set with rice is 0.

In the case of `CCc1nn(CC)c(OC(=O)c2cn(C)nc2C)c1C(=O)c1ccc(C(F)(F)F)c(N2CCCCCC2=O)c1Cl` [Compound 123], in the data set on Indian mallow, the “weed control effect, Indian mallow (level)” value was determined as 10. Moreover, the “weed control effect, Bidens bipinnata (level)” value in the data set with bidens bipinnata was 7 (Level 7: above 80% growth control rate). The “weed control effect, Crab grass (level)” value in the data set with crab grass is 3 (Level 3: above 20% growth control rate). Also, the “weed control effect, Echinochloa (level)” value in the data set with echinochloa was determined as 10. The “weed control effect, Green foxtail (level)” value with foxtail is given as 6 (Level 6: above 70% growth control rate). Besides, the “weed control effect, Rorippa indica (level)” value in the data set with rorippa indica is on record as 3 (Level 3: above 20% growth control rate). Moreover, the “effect on crop, Corn (level)” value in the data set on corn is 4 (Level 4: above 50% growth control rate). In addition, the “effect on crop, Wheat (level)” value with wheat is listed as 1 (Level 1: below 5% growth control rate). The “effect on crop, Rice (level)” value in the data set on rice is 7 (Level 7: above 80% growth control rate).

Turning to `Cc1cnn(-c2c(C(F)(F)F)ccc(C(=O)c3cnn(C)c3O)c2Cl)c1` [Compound 080], in the data set on Indian mallow, the “weed control effect, Indian mallow (level)” value was 7 (Level 7: above 80% growth control rate). Also, the “weed control effect, Bidens bipinnata (level)” value with bidens bipinnata is reported as 8 (Level 8: above 90% growth control rate). In addition, the “weed control effect, Crab grass (level)” value in the data set on crab grass is 6 (Level 6: above 70% growth control rate). Also, the “weed control effect, Echinochloa (level)” value with echinochloa was 5 (Level 5: above 60% growth control rate). Further, the “weed control effect, Green foxtail (level)” value in the data set with foxtail is recorded as 10. In addition, in the data set with rorippa indica, the “weed control effect, Rorippa indica (level)” value is given as 7 (Level 7: above 80% growth control rate). Moreover, in the data set on corn, the “effect on crop, Corn (level)” value is given as 3 (Level 3: above 20% growth control rate). Moreover, the “effect on crop, Wheat (level)” value in the data set on wheat is recorded as 2 (Level 2: 5%-20% growth control rate). Moreover, the “effect on crop, Rice (level)” value with rice is 1 (Level 1: below 5% growth control rate).

For the molecule `CCc1nn(C)c(O)c1C(=O)c1ccc(C(F)(F)F)c(-n2cccn2)c1Cl` [Compound 130], the “weed control effect, Indian mallow (level)” value with Indian mallow is 0. Also, in the data set with bidens bipinnata, the “weed control effect, Bidens bipinnata (level)” value is 3 (Level 3: above 20% growth control rate). Besides, in the data set on crab grass, the “weed control effect, Crab grass (level)” value was 3 (Level 3: above 20% growth control rate). Also, in the data set on echinochloa, the “weed control effect, Echinochloa (level)” value is recorded as 10. For the same molecule, in the data set with foxtail, the “weed control effect, Green foxtail (level)” value stood at 10. In the data set on rorippa indica, the “weed control effect, Rorippa indica (level)” value amounted to 10. In the data set on corn, the “effect on crop, Corn (level)” value was 4 (Level 4: above 50% growth control rate). The “effect on crop, Wheat (level)” value with wheat is listed as 2 (Level 2: 5%-20% growth control rate). In the data set with rice, the “effect on crop, Rice (level)” value is on record as 7 (Level 7: above 80% growth control rate).

With `CCn1ncc(C(=O)c2ccc(C(F)(F)F)c(N3CCCCC3=O)c2Cl)c1OC(=O)c1cn(C)nc1C` [Compound 107], the “weed control effect, Indian mallow (level)” value with Indian mallow came to 10. In addition, the “weed control effect, Bidens bipinnata (level)” value with bidens bipinnata is 9 (Level 9: above 95% growth control rate). In addition, in the data set with crab grass, the “weed control effect, Crab grass (level)” value was 8 (Level 8: above 90% growth control rate). In the data set with echinochloa, the “weed control effect, Echinochloa (level)” value came out at 10. Moreover, the “weed control effect, Green foxtail (level)” value with foxtail was determined as 10. Further, in the data set with rorippa indica, the “weed control effect, Rorippa indica (level)” value is on record as 6 (Level 6: above 70% growth control rate). Moreover, the “effect on crop, Corn (level)” value in the data set with corn was 5 (Level 5: above 60% growth control rate). In addition, the “effect on crop, Wheat (level)” value in the data set on wheat is recorded as 5 (Level 5: above 60% growth control rate). The “effect on crop, Rice (level)” value in the data set with rice was 8 (Level 8: above 90% growth control rate).

With `CCOC(=O)Oc1c(C(=O)c2ccc(C(F)(F)F)c(-n3ccc(C)n3)c2Cl)c(C)nn1C` [Compound 078], the “weed control effect, Indian mallow (level)” value in the data set with Indian mallow turned out to be 10. Further, the “weed control effect, Bidens bipinnata (level)” value in the data set with bidens bipinnata worked out at 10. Further, the “weed control effect, Crab grass (level)” value with crab grass is reported as 4 (Level 4: above 50% growth control rate). For the same molecule, the “weed control effect, Echinochloa (level)” value in the data set with echinochloa was 7 (Level 7: above 80% growth control rate). For the same molecule, the “weed control effect, Green foxtail (level)” value in the data set on foxtail is given as 7 (Level 7: above 80% growth control rate). In the data set on rorippa indica, the “weed control effect, Rorippa indica (level)” value was determined as 0. For the same molecule, the “effect on crop, Corn (level)” value with corn worked out at 0. Also, the “effect on crop, Wheat (level)” value in the data set on wheat was 0. For the same molecule, the “effect on crop, Rice (level)” value in the data set on rice is 4 (Level 4: above 50% growth control rate).

The record behind these values is US11076594B2, “Pyrazolone compound or salt thereof, preparation method therefor, herbicide composition and use thereof” (QINGDAO KINGAGROOT CHEMICAL COMPOUNDS CO., LTD., priority 2015, dated 2021).
